Values quoted from earlier work as cited in patent publication US9895311B2, “Foam-forming compositions and methods for delivering an active to a body cavity” (Pharmiva AB, priority 2014, dated 2018).

Tests used:
[1] = tested on: anaerobic bacteria involved in vaginal and urinary tube infections; details: in 7 seconds, laboratory conditions (Block 1983)
several species = details: even at low pH (Attassi, Servin 2010)

Structure (SMILES): OO [hydrogen peroxide]
- log reduction [1]: 2 log
- Concentration required for inhibition (several species): ≥ 20 mM
